Experimental data published in patent US8685933B2, “Casein-derived peptides having anxiolytic activity” (Universite de Lorraine, priority 2006, dated 2014).
Where no end group is shown, it is not given here.

Experiments:
Assay type in all cases: in vivo, rat
[1] = tested on: Wistar rats; experiment: elevated plus maze test; conditions: for number of entries in the open arms, carrier compared with treated animals / percentage of entries into the open arms, carrier compared with treated animals / time spent in the open arms, carrier compared with treated animals: p<0.05
Excerpt: The elevated plus maze test allows the measurement of the density of exploratory behaviour in a new aversive situation [PELLOW et al., 1985 (17)]. The experiment exploits the conflict in rodents, between the fear of open spaces and the desire of exploring a new environment. The rat, placed at the centre of the device is forced to explore its environment. The open arms form an anxiogenic environment, whereas this is not the case of the closed arms. The number of entries in the whole of the arms, that relating to the open arms, the closed arms, the time spent in the open arms, the entry latency in the first open arm, form parameters which reflect the degree of anxiety of the animal.
The elevated plus maze built in wood consists of four branches at 90° from each other. The two open branches (45×10 cm) and the two closed branches (45×10 cm; surrounded with wooden plates over a height of 40 cm) are positioned facing each other. The central square measures 10×10 cm. The open branches are illuminated by white light with an intensity of 500 lux. The elevated plus maze is located at 50 cm from the ground.
The observations take place between 9.0 am and 11.0 am in order to minimize the influence of the circadian rhythm. […] each passage in the elevated plus maze, the animal is placed for 10 min in an open field in order to stimulate its exploratory behavior. It is then placed in the central square of the elevated plus maze and observed for 5 min. The plus maze is washed with 95% (v/v) ethanol between two passages in order to eliminate the odors.
The animals receive their respective treatment via an intra-peritoneal route, half an hour before passing into the open field.

[2] = tested on: Wistar rats; experiment: light/dark box test; conditions: for time spent in the aversive non-familiar compartment, carrier compared with treated animals: 10 min observation, p<0.05
Excerpt: The light/dark tests are based on the innate aversion of rodents for intensively illuminated environments and on their spontaneous exploratory behavior in response to slight stress factors such as a new environment and light. The device of the light/dark box allows the study of the exploratory behavior of the rodent towards a non-familiar aversive compartment (intensively illuminated with white light) after habituation in a non-aversive compartment (dark) which then becomes familiar [BOURIN and HASCOËT, 2008 (18)]. Conventional anxiolytics may be detected by using this device.
The light/dark box measures 65×49×35 cm (h×w×l) and is separated into two identical compartments by a plate perforated with three doors of 8×8 cm. The floor is covered with sawdust. Each rat is placed for 24 h in the rear compartment of the box, the doors for communicating with the front compartment being inaccessible. The rear compartment thus becomes the familiar compartment. The animal is fed and hydrated ad libitum. On the day of the test, the rat after treatment is replaced in the familiar compartment and the doors communicating with the front compartment (non-familiar) are made accessible so that the animal may freely explore the environment. The non-familiar compartment is made aversive by white light illumination with an intensity of 1,500 lux. The animals are observed for 10 min and the time spent in each of the compartments is measured.
The animals receive their respective treatment via an intra-peritoneal route, half an hour before opening the communication between the familiar compartment and the non-familiar compartment.

[3] = tested on: Wistar rats; experiment: conditioned defensive burial test
Excerpt: The conditioned defensive burial test was used for measuring the anxiety level in rats. Developed by PINEL and TREIT (16), this test is based on the innate tendency of rodents, placed in a familiar environment of burying any object perceived as being dangerous by projecting on the latter the litter present at ground level. The expression of the burial behavior by the animal is representative of its anxiety level: more it is anxious, more it buries.
The test takes place in a Plexiglas box (44×28×18 cm), one of the walls of which has an orifice through which an electrode (7×2×0.5 cm) may be inserted. The bottom of the box is covered with a thick layer of sawdust (5 cm). The electrode is connected to a generator delivering a 1 mA intensity current when it is actuated by the experimenter. The whole of the experimentation is carried out in low intensity light.
The experiment consists of habituation phase of 2 days followed by a test phase. During the habituation phase, the rats are placed 20 min daily in the test box, without the electrode, in order to accustom them to the experimental device. During the test phase, each rat is individually placed in the box which contains the electrode. When the animal touches the electrode in the first time, it receives a single shock. From this instant, its behavior is filmed for 5 min and behavioral variables are quantified.
The total burial time and the occurrence latency of the burial behavior after the shock are the most significant variables. A certain number of behaviors oriented towards the electrode and correlated with the anxiety level of the rat (approaches, escapes, contacts) are also counted. Finally, indicators of the activity level of the rat such as the number of upright standing postures are reported.
The animals receive their respective treatments, via an intra-peritoneal route, half an hour before passing into the conditioned defensive burial test.

[4] = diazepam 1 mg/kg intra-peritoneal
[5] = fragment 0.7 mg/kg vs diazepam 1 mg/kg intra-peritoneal
[6] = fragment 91-97 0.7 mg/kg intra-peritoneal

CN1C(=O)CN=C(c2ccccc2)c2cc(Cl)ccc21 [diazepam, reference compound]
number of entries in the open arms, carrier compared with treated animals [1, 4]: significantly less | percentage of entries into the open arms, carrier compared with treated animals [1, 4]: significantly less | time spent in the open arms, carrier compared with treated animals [1, 4]: significantly less | time spent in the aversive non-familiar compartment, carrier compared with treated animals [2, 4]: significantly less

YLGYLEQ [fragment 91-97 of αs1 casein, Heptapeptide corresponding to the positions 91-97 of αs1 casein]
elevated plus maze open-arm parameters, fragment 91-97 compared with diazepam [1, 5]: No significant difference | number of entries in the open arms, carrier compared with treated animals [1, 6]: significantly less | percentage of entries into the open arms, carrier compared with treated animals [1, 6]: significantly less | time spent in the open arms, carrier compared with treated animals [1, 6]: significantly less | anxiolytic action in conditioned defensive burial ([3]; 0.5 mg/kg intra-peritoneal): has an anxiolytic action in Wistar rats which acts in the same direction as that of diazepam | burial duration of an aversive probe after a single 1 mA shock, NaCl 0.9% control compared with treated animals ([3]; 0.5 mg/kg intra-peritoneal, half an hour before test, Mann-Whitney: diazepam p<0.02, fragment 91-97 p<0.04, 5 min observation): significantly larger | burial duration, fragment 91-97 compared with diazepam ([3]; both 0.5 mg/kg intra-peritoneal): No significant difference | time spent in the non-familiar compartment, fragment 91-97 compared with diazepam [2, 5]: No significant difference | time spent in the aversive non-familiar compartment, carrier compared with treated animals [2, 6]: significantly less
